Laboratory results taken from patent US20100311714A1, “1H-IMIDAZO[4,5-c]QUINOLINONE COMPOUNDS” (priority 2009, published 2010).

target: T1, PI3K delta (Homo sapiens, UniProt O00329); experiment: PI3K delta kinase assay (Kinase-Glo luminescence); assay type: biochemical; conditions: read-out: EPK_PI3Kdelta/IC50
T1 construct: for the full-length p110-d subunit are generated and fused by overlapping PCR; His tag (C); made in house; host or cells: baculovirus BV1060; Tn5 (Trichoplusia ni) or TiniPro insect cells
T1 sequence (O00329 with tags, fused parts or gaps limits assumed): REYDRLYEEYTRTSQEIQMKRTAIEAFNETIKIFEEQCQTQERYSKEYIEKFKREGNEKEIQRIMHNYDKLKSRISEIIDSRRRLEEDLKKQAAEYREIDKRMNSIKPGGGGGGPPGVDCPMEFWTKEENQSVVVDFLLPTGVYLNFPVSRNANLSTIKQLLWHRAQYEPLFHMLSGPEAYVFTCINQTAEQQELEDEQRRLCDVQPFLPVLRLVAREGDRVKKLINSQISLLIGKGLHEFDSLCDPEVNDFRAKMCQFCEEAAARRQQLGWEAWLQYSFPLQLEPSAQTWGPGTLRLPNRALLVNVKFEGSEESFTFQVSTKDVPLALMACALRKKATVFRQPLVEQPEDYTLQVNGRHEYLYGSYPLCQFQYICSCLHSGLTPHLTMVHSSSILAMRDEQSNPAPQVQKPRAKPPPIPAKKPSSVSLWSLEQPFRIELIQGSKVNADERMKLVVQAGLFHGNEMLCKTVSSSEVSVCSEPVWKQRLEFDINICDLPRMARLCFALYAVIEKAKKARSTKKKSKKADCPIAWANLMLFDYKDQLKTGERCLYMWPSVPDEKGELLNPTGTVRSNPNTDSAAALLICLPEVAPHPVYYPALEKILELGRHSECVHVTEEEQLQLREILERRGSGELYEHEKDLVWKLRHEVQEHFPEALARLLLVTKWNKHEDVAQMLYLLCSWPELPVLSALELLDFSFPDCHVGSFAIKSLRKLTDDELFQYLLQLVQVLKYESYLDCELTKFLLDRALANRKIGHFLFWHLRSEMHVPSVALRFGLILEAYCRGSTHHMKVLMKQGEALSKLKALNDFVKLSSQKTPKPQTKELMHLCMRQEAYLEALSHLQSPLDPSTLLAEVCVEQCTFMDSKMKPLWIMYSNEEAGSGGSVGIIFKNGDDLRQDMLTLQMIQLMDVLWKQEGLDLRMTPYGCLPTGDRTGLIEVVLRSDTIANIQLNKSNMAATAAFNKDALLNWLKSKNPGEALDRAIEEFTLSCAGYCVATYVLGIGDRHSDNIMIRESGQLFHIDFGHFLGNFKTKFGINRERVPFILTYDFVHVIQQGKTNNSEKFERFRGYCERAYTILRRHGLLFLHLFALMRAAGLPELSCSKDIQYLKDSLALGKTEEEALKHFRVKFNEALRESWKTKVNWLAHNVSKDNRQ
Method in brief: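 IC50s derive from 8-point inhibition curves fitted to a 4-parameter logistic model. Reaction: 10 nM purified p110δ/p85 iSH2 fusion, 1 μM ATP, 10 μg/mL PI substrate, pH 7.5 Tris buffer with MgCl2, NaCl, CHAPS and DTT, run 60 min at room temperature; remaining ATP read by Kinase-Glo luminescence.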

IC50 [nM] | SMILES
406 | COc1cc(-c2ccc3ncc4c(c3c2)n(-c2cccnc2C)c(=O)n4C)cnc1C(OC)OC [Example 2.27, 8-(6-Dimethoxymethyl-5-methoxy-pyridin-3-yl)-3-methyl-1-(2-methyl-pyridin-3-yl)-1,3-dihydro-imidazo[4,5-c]quinolin-2-one]
43 | CCOc1cc(-c2ccc3ncc4c(c3c2)n(-c2ccc(N3CCCC3)nc2C)c(=O)n4C)cnc1COC [Example 25.2, 8-(5-Ethoxy-6-methoxymethyl-pyridin-3-yl)-3-methyl-1-(2-methyl-6-pyrrolidin-1-yl-pyridin-3-yl)-1,3-dihydro-imidazo[4,5-c]quinolin-2-one]
6 | Cc1nc(C(F)(F)F)ccc1-n1c(=O)n(C)c2cnc3ccc(-c4cncc(C(C)(C)O)c4)cc3c21 [Example 33.1, 8-[5-(1-Hydroxy-1-methyl-ethyl)-pyridin-3-yl]-3-methyl-1-(2-methyl-6-trifluoromethyl-pyridin-3-yl)-1,3-dihydro-imidazo[4,5-c]quinolin-2-one]
< 3 | Cc1nc(N(C)CCO)ccc1-n1c(=O)n(C)c2cnc3ccc(-c4cnc(N)c(C(F)(F)F)c4)cc3c21 [Example 26.1, 8-(6-Amino-5-trifluoromethyl-pyridin-3-yl)-1-{6-[(2-hydroxy-ethyl)-methyl-amino]-2-methyl-pyridin-3-yl}-3-methyl-1,3-dihydro-imidazo[4,5-c]quinolin-2-one]
25 | CCNc1cc(-c2ccc3ncc4c(c3c2)n(-c2cccnc2C)c(=O)n4C)cnc1CO [Example 2.31, 8-(5-Ethylamino-6-hydroxymethyl-pyridin-3-yl)-3-methyl-1-(2-methyl-pyridin-3-yl)-1,3-dihydro-imidazo[4,5-c]quinolin-2-one]
< 3 | Cc1nc(N2CCCC2)ccc1-n1c(=O)n(C)c2cnc3ccc(-c4cncc(C(C)(C)O)c4)cc3c21 [Example 25.3, 8-[5-(1-Hydroxy-1-methyl-ethyl)-pyridin-3-yl]-3-methyl-1-(2-methyl-6-pyrrolidin-1-yl-pyridin-3-yl)-1,3-dihydro-imidazo[4,5-c]quinolin-2-one]
504 | Cc1ncccc1-n1c(=O)n(C)c2cnc3ccc(-c4cncc(N5CCC5)c4)cc3c21 [Example 2.29, 8-(5-Azetidin-1-yl-pyridin-3-yl)-3-methyl-1-(2-methyl-pyridin-3-yl)-1,3-dihydro-imidazo[4,5-c]quinolin-2-one]
13 | CNc1ncc(-c2ccc3ncc4c(c3c2)n(-c2ccc(N3CC(O)C3)nc2C)c(=O)n4C)cc1C(F)(F)F [Example 29.4, 1-[6-(3-Hydroxy-azetidin-1-yl)-2-methyl-pyridin-3-yl]-3-methyl-8-(6-methylamino-5-trifluoromethyl-pyridin-3-yl)-1,3-dihydro-imidazo[4,5-c]quinolin-2-one]
16 | Cc1nc(N2CCC2)ccc1-n1c(=O)n(C)c2cnc3ccc(-c4cncc(C(C)(C)O)c4)cc3c21 [Example 23.3, 1-(6-Azetidin-1-yl-2-methyl-pyridin-3-yl)-8-[5-(1-hydroxy-1-methyl-ethyl)-pyridin-3-yl]-3-methyl-1,3-dihydro-imidazo[4,5-c]quinolin-2-one]
7 | Cc1nc(C(C)(C)O)ccc1-n1c(=O)n(C)c2cnc3ccc(-c4cncc(C5(C#N)CCC5)c4)cc3c21 [Example 31.8, 1-(5-{1-[6-(1-Hydroxy-1-methyl-ethyl)-2-methyl-pyridin-3-yl]-3-methyl-2-oxo-2,3-dihydro-1H-imidazo[4,5-c]quinolin-8-yl}-pyridin-3-yl)-cyclobutanecarbonitrile]
59 | COC1CCN(c2ccc(-n3c(=O)n(C)c4cnc5ccc(-c6cncc(C(C)(C)O)c6)cc5c43)c(C)n2)C1 (stereo not shown) [Example 28.1, 8-[5-(1-Hydroxy-1-methyl-ethyl)-pyridin-3-yl]-1-[6-(3-methoxy-pyrrolidin-1-yl)-2-methyl-pyridin-3-yl]-3-methyl-1,3-dihydro-imidazo[4,5-c]quinolin-2-one]
< 3 | Cc1nc(C(C)(C)O)ccc1-n1c(=O)n(C)c2cnc3ccc(-c4cnc(N)c(C(F)(F)F)c4)cc3c21 [Example 31.5, 8-(6-Amino-5-trifluoromethyl-pyridin-3-yl)-1-[6-(1-hydroxy-1-methyl-ethyl)-2-methyl-pyridin-3-yl]-3-methyl-1,3-dihydro-imidazo[4,5-c]quinolin-2-one]
78 | CCOc1cc(-c2ccc3ncc4c(c3c2)n(-c2ccc(F)nc2C)c(=O)n4C)cnc1COC [Example 7.5, 8-(5-Ethoxy-6-methoxymethyl-pyridin-3-yl)-1-(6-fluoro-2-methyl-pyridin-3-yl)-3-methyl-1,3-dihydro-imidazo[4,5-c]quinolin-2-one]
25 | CCOc1cc(-c2ccc3ncc4c(c3c2)n(-c2ccc(N3CCC3)nc2C)c(=O)n4C)cnc1COC [Example 23.5, 1-(6-Azetidin-1-yl-2-methyl-pyridin-3-yl)-8-(5-ethoxy-6-methoxymethyl-pyridin-3-yl)-3-methyl-1,3-dihydro-imidazo[4,5-c]quinolin-2-one]
57 | Cc1ncccc1-n1c(=O)n(C)c2cnc3ccc(-c4cncc(N)c4)cc3c21 [Example 2.25, 8-(5-Amino-pyridin-3-yl)-3-methyl-1-(2-methyl-pyridin-3-yl)-1,3-dihydro-imidazo[4,5-c]quinolin-2-one]
38 | Cc1nc(F)ccc1-n1c(=O)n(C)c2cnc3ccc(-c4cncc(C(C)(C)O)c4)cc3c21 [Example 7.8, 1-(6-Fluoro-2-methyl-pyridin-3-yl)-8-[5-(1-hydroxy-1-methyl-ethyl)-pyridin-3-yl]-3-methyl-1,3-dihydro-imidazo[4,5-c]quinolin-2-one]
36 | CNc1ncc(-c2ccc3ncc4c(c3c2)n(-c2ccc(N3CC[C@H](O)C3)nc2C)c(=O)n4C)cc1F [Example 32.2, 8-(5-Fluoro-6-methylamino-pyridin-3-yl)-1-[6-((S)-3-hydroxy-pyrrolidin-1-yl)-2-methyl-pyridin-3-yl]-3-methyl-1,3-dihydro-imidazo[4,5-c]quinolin-2-one]
164 | CNc1ncc(-c2ccc3ncc4c(c3c2)n(-c2ccc(N3CC(F)(F)C3)nc2C)c(=O)n4C)cn1 [Example 24.1, 1-[6-(3,3-Difluoro-azetidin-1-yl)-2-methyl-pyridin-3-yl]-3-methyl-8-(2-methylamino-pyrimidin-5-yl)-1,3-dihydro-imidazo[4,5-c]quinolin-2-one]
26 | CCNc1ncc(-c2ccc3ncc4c(c3c2)n(-c2ccc(N3CC[C@@H](O)C3)nc2C)c(=O)n4C)cc1COCC [Example 34.4, 8-(5-Ethoxymethyl-6-ethylamino-pyridin-3-yl)-1-[6-((R)-3-hydroxy-pyrrolidin-1-yl)-2-methyl-pyridin-3-yl]-3-methyl-1,3-dihydro-imidazo[4,5-c]quinolin-2-one]
36 | CCOc1ccc(-c2ccc3ncc4c(c3c2)n(-c2ccc(C(C)(C)O)nc2C)c(=O)n4C)cn1 [Example 31.4, 8-(6-Ethoxy-pyridin-3-yl)-1-[6-(1-hydroxy-1-methyl-ethyl)-2-methyl-pyridin-3-yl]-3-methyl-1,3-dihydro-imidazo[4,5-c]quinolin-2-one]
12 | CCNc1ncc(-c2ccc3ncc4c(c3c2)n(-c2ccc(N3CC[C@@H](O)C3)nc2C)c(=O)n4C)cc1C(F)(F)F [Example 34.2, 8-(6-Ethylamino-5-trifluoromethyl-pyridin-3-yl)-1-[6-((R)-3-hydroxy-pyrrolidin-1-yl)-2-methyl-pyridin-3-yl]-3-methyl-1,3-dihydro-imidazo[4,5-c]quinolin-2-one]
50 | COc1cc(-c2ccc3ncc4c(c3c2)n(-c2ccc(N3CC(O)C3)nc2C)c(=O)n4C)cnc1CO [Example 29.5, 1-[6-(3-Hydroxy-azetidin-1-yl)-2-methyl-pyridin-3-yl]-8-(6-hydroxymethyl-5-methoxy-pyridin-3-yl)-3-methyl-1,3-dihydro-imidazo[4,5-c]quinolin-2-one]
9 | CNc1ncc(-c2ccc3ncc4c(c3c2)n(-c2ccc(N3CC[C@H](O)C3)nc2C)c(=O)n4C)cn1 [Example 32.1, 1-[6-((S)-3-Hydroxy-pyrrolidin-1-yl)-2-methyl-pyridin-3-yl]-3-methyl-8-(2-methylamino-pyrimidin-5-yl)-1,3-dihydro-imidazo[4,5-c]quinolin-2-one]
17 | CCNc1cc(-c2ccc3ncc4c(c3c2)n(-c2ccc(N3CCC3)nc2C)c(=O)n4C)cnc1CO [Example 23.8, 1-(6-Azetidin-1-yl-2-methyl-pyridin-3-yl)-8-(5-ethylamino-6-hydroxymethyl-pyridin-3-yl)-3-methyl-1,3-dihydro-imidazo[4,5-c]quinolin-2-one]

same assay, conditions: read-out: PI3Kdelta/IC50

IC50 [nM] | SMILES
31 | Cc1nc(F)ccc1-n1c(=O)n(C)c2cnc3ccc(-c4cnc5c(ccn5C)c4)cc3c21 [Example 7.2, 1-(6-Fluoro-2-methyl-pyridin-3-yl)-3-methyl-8-(1-methyl-1H-pyrrolo[2,3-b]pyridin-5-yl)-1,3-dihydro-imidazo[4,5-c]quinolin-2-one]
66 | CCOc1ccc(-c2ccc3ncc4c(c3c2)n(-c2ccc(N3CCNCC3)nc2OC)c(=O)n4C)cn1 [Example 9.1, 8-(6-Ethoxy-pyridin-3-yl)-1-(2-methoxy-6-piperazin-1-yl-pyridin-3-yl)-3-methyl-1,3-dihydro-imidazo[4,5-c]quinolin-2-one]
851 | CCOc1ncc(-c2ccc3ncc4c(c3c2)n(-c2ncccc2C)c(=O)n4C)cn1 [Example 3.1, 8-(2-Ethoxy-pyrimidin-5-yl)-3-methyl-1-(3-methyl-pyridin-2-yl)-1,3-dihydro-imidazo[4,5-c]quinolin-2-one]
32 | Cc1ncccc1-n1c(=O)n(C)c2cnc3ccc(-c4cnc(N(C)C)nc4)cc3c21 [Example 2.15, 8-(2-Dimethylamino-pyrimidin-5-yl)-3-methyl-1-(2-methyl-pyridin-3-yl)-1,3-dihydro-imidazo[4,5-c]quinolin-2-one]
